In PubChem BioAssay AID192 (DTP/NCI, 2004):
Several values for one entry are separate records, joined by “and”; a condition that tells them apart may be missing. Equal entries are not always repeated. Toxic doses and inconclusive results are not listed. How the source made its calls: active means survival T/C of 150% or more; inactive means T/C below 125% in these data.

Test system: BDF1 mice, B16 melanoma ip, median survival T/C
Assay: NCI In Vivo Anticancer Drug Screen. Data for tumor model B16 Melanoma (intraperitoneal) in B6D2F1 (BDF1) mice
Conditions: endpoint: median survival time, higher = longer survival
Outline: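 Mice with transplantable tumors; drug vs vehicle groups; endpoint survival or tumor size; value = T/C.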

[1] = dose: 100.0 mg/kg/injection, schedule: Q01DX009 (ip), vehicle: Klucel (hydroxypropylcellulose) (HPC)
[2] = dose: 200.0 mg/kg/injection, schedule: Q01DX009 (ip), vehicle: Klucel (hydroxypropylcellulose) (HPC)

Measured: T/C

NNc1n[nH]c(=S)n1N
inactive: dose: 0.78 mg/kg/injection, schedule: Q01DX009 (ip), vehicle: saline with Tween-80 88 % of control | dose: 1.56 mg/kg/injection, schedule: Q01DX009 (ip), vehicle: saline with Tween-80 93 % of control | dose: 3.13 mg/kg/injection, schedule: Q01DX009 (ip), vehicle: saline with Tween-80 90 % of control | dose: 6.25 mg/kg/injection, schedule: Q01DX009 (ip), vehicle: saline with Tween-80 86 % of control

CC(C)c1ccc(NC(=O)Nc2cccc3ccccc23)cc1
inactive: [1] 100 % of control | [2] 97 % of control

CCC(=O)NC(CC(C)C)C(=O)NC(CC(C)C)C(=O)NC(C=O)CCCN=C(N)N (centres undefined) (tested in a mixture with another compound)
inactive: dose: 12.5 mg/kg/injection, schedule: Q01DX009 (ip), vehicle: saline 100 % of control and 105 % of control | dose: 25.0 mg/kg/injection, schedule: Q01DX009 (ip), vehicle: saline 94 % of control and 105 % of control | dose: 50.0 mg/kg/injection, schedule: Q01DX009 (ip), vehicle: saline 99 % of control and 105 % of control | dose: 100.0 mg/kg/injection, schedule: Q01DX009 (ip), vehicle: saline 108 % of control and 120 % of control

CC(=N)/C(C(=O)NC1CCCCC1)=C(/C)O
inactive: dose: 100.0 mg/kg/injection, schedule: Q04DX003 (ip), vehicle: saline 100 % of control | dose: 200.0 mg/kg/injection, schedule: Q04DX003 (ip), vehicle: saline 97 % of control | dose: 400.0 mg/kg/injection, schedule: Q04DX003 (ip), vehicle: saline 97 % of control

O=C1C(=O)c2ccccc2C(O)=C1CCCc1ccc(C2CCCCCC2)cc1
inactive: dose: 25.0 mg/kg/injection, schedule: Q01DX009 (ip), vehicle: saline with Tween-80 123 % of control | dose: 50.0 mg/kg/injection, schedule: Q01DX009 (ip), vehicle: saline with Tween-80 114 % of control

CCC(=O)Oc1ccc(OCc2ccccc2)cc1
inactive: dose: 100.0 mg/kg/injection, schedule: Q04DX003 (ip), vehicle: Klucel (hydroxypropylcellulose) (HPC) 95 % of control | dose: 200.0 mg/kg/injection, schedule: Q04DX003 (ip), vehicle: Klucel (hydroxypropylcellulose) (HPC) 86 % of control | dose: 400.0 mg/kg/injection, schedule: Q04DX003 (ip), vehicle: Klucel (hydroxypropylcellulose) (HPC) 97 % of control

CCC(=O)Nc1ccc(C)c(Cl)c1
inactive: dose: 100.0 mg/kg/injection, schedule: Q01DX009 (ip), vehicle: saline with Tween-80 105 % of control | dose: 200.0 mg/kg/injection, schedule: Q01DX009 (ip), vehicle: saline with Tween-80 105 % of control | dose: 400.0 mg/kg/injection, schedule: Q01DX009 (ip), vehicle: saline with Tween-80 115 % of control

O=C1Cc2cc3c(cc2C=C2CCCN12)OCO3
inactive: dose: 12.5 mg/kg/injection, schedule: Q01DX009 (ip), vehicle: water 117 % of control | dose: 25.0 mg/kg/injection, schedule: Q01DX009 (ip), vehicle: water 108 % of control | dose: 50.0 mg/kg/injection, schedule: Q01DX009 (ip), vehicle: water 102 % of control | dose: 100.0 mg/kg/injection, schedule: Q01DX009 (ip), vehicle: water 107 % of control

COc1cc2c(cc1OC)C(C=C(c1ccccc1)c1ccccc1)N(C)CC2 (centres undefined)
inactive: dose: 12.5 mg/kg/injection, schedule: Q04DX003 (ip), vehicle: Klucel (hydroxypropylcellulose) (HPC) 97 % of control | dose: 25.0 mg/kg/injection, schedule: Q04DX003 (ip), vehicle: Klucel (hydroxypropylcellulose) (HPC) 97 % of control | dose: 50.0 mg/kg/injection, schedule: Q04DX003 (ip), vehicle: Klucel (hydroxypropylcellulose) (HPC) 100 % of control

COc1cccc2c1C(=O)c1c(O)c3c(c(O)c1C2=O)C[C@@](O)(C(C)=O)C[C@@H]3OC1CC(N2CCOCC2C#N)C(O)C(C)O1 (some centres undefined)
inactive: dose: 9.38 micrograms/kg/injection, schedule: Q01DX001 (ip), vehicle: distilled water + Tween-80 117 % of control | dose: 18.75 micrograms/kg/injection, schedule: Q01DX001 (ip), vehicle: water 107 % of control | dose: 75.0 micrograms/kg/injection, schedule: Q01DX001 (ip), vehicle: water 112 % of control

Cc1ccc(C)c(NC(=O)NC(C)C)c1
inactive: [1] 106 % of control | [2] 100 % of control | dose: 400.0 mg/kg/injection, schedule: Q01DX009 (ip), vehicle: Klucel (hydroxypropylcellulose) (HPC) 103 % of control
